The test system of data set [1] is Moloney murine leukemia virus (MLV). The following applies: background statement; cited from earlier work.
In another data set the test system is Pbx1 protein. The experiment in a line: Western blot of Pbx1 protein in siRNA-transfected Magi cells. The format is cell-based. The following applies: Magi cells lysed 48-60 hours after transfection; versus firefly luciferase siRNA control. The text has this:
(§1) The ability of Pbx 1 to mediate transcription of genes of retroviruses that infect human cells was investigated using Magi indicator cells (e.g., Kimpton and Emerman, J. Virol. 66: 2232-2239, 1992). The MAGI (Multinuclear Activation of a Galactosidase Indicator) cell line was derived from parental HeLa cells by introducing genes for CD4 and an HIV-1 LTR-driven β-gal reporter with an amphotropic retrovirus vector. This cell line exploits the ability of HIV-1 tat to transactivate the expression of a β-galactosidase reporter gene driven by the HIV-LTR. […] The β-galactosidase activity was then assessed in the cultures. […] Western blot analysis of Pbx1 siRNA-transfected Magi cells confirmed that levels of Pbx1 protein were reduced in comparison to control cells transfected with firefly luciferase siRNA, which served as a negative control (FIG. 2). […] The γ-tubulin was used as the loading control.
In general terms: A western blot detects proteins with antibodies after separation by electrophoresis.

In data set [2] the test system is HIV-1 LTR-driven β-gal reporter in Magi cells. Put plainly: Magi indicator cell β-galactosidase assay (HIV LTR-mediated gene expression). The format is cell-based. The following applies: Magi cells transiently transfected with siRNA; versus Scramble siRNA control.
Text: as §1

Another data set relates to HIV-1. The settings on record: siRNA-transfected Magi cells; versus Scramble siRNA control. The procedure: Magi cells were transiently transfected with an siRNA targeting Pbx1 or Pin1. A Scramble siRNA was used as a negative control. Reverse transcriptase activity was then assessed.
Magi indicator cells were also used to determine the effect of HMG I proteins on the transcription of retroviral genes. Magi cells were transiently transfected with an siRNA targeting HMG I-C or HMG I/Y. A Scramble siRNA was used as a negative control. […] For the western blot analysis, cells were transiently transfected with the siRNAs targeting HMGI/Y (FIG. 9), HMG I-C (FIG. 10) or firefly luciferase (control siRNA). Magi cells were lysed 48-60 hours after transfection and analyzed by western blot using antibodies against HMGI/Y, HMG I-C or γ-tubulin proteins. The γ-tubulin levels were used as the loading controls.

A further data set concerns recombinant HIV. Put plainly: Recombinant HIV assay, luciferase reporter in 293T cells. The format is cell-based, HIV-1. The following applies: 293T cells transfected with siRNA, infected with recombinant HIV after 24 hours, measured after 48 hrs; versus Scramble siRNA. The method, then:
A recombinant HIV assay was used to assess the role of HMG I proteins in HIV replication. Pseudotyped recombinant HIV particles were generated by transient transfection of 293T cells using a three-plasmid expression system (FIGS. 5a and 5b).
A Scramble siRNA was used as a negative control After 24 hours, the transfected cells were infected with recombinant HIV. After 48 hrs, luciferase activity was measured.
(In general: Reporter assays use an easily measured gene product as a stand-in for the process of interest.)

The subject of the next data set is HMG I-C protein. The experiment in a line: Western blot of HMG I-C protein in siRNA-treated Magi cells. Format: cell-based. The following applies: Magi cells lysed 48-60 hours after transfection; versus luciferase siRNA control.
A further data set deals with HMG I/Y protein. Put plainly: Western blot of HMG I/Y protein in siRNA-treated Magi cells. The following applies: Magi cells lysed 48-60 hours after transfection; versus luciferase siRNA control. The format is cell-based.
Data set [3] concerns human immunodeficiency virus (HIV). The settings on record: Chao et al., J. Biol. Chem. 2000; cited from earlier work.

With methoxy-roscovitine, the MLV transcription events entry in data set [1] is recorded as “block”.
For the compound “AAGCCUGCCUUGUUUAAUGUG (chemistry not given here) [Pbx1 siRNA]”, the “levels of Pbx1 protein” value with Pbx1 protein was “reduced”. Moreover, the β-gal activity result in data set [2] is listed as “reduced”. The “activity of HIV reverse transcriptase” value with HIV-1 is on record as “greatly reduced”.
With “AAGCAGCUCAAAAGAAAGCAG (chemistry not given here) [HMG I-C]”, the β-gal activity result in data set [2] is on record as “inhibited”. The luciferase reporter activity entry in the data set with recombinant HIV is reported as “reduced”. In the data set with HMG I-C protein, the “levels of HMG I-C protein” value is reported as “reduced”. Also, the “activity of HIV reverse transcriptase” value in the data set on HIV-1 is on record as “reduced”.
Consider “AAGUGCCAACACCUAAGAGAC (chemistry not given here) [HMG I/Y]”, for which the “levels of HMG I/Y protein” value in the data set with HMG I/Y protein is given as “reduced”. Also, the β-gal activity result in data set [2] is “inhibited”. Besides, in the data set with HIV-1, the “activity of HIV reverse transcriptase” value is reported as “reduced”.
In the case of `CN1CC[C@H](c2c(O)cc(O)c3c(=O)cc(-c4ccccc4Cl)oc23)[C@H](O)C1` [flavopiridol], the MLV transcription events entry in data set [1] is on record as “block”. Besides, in data set [3], the anti-HIV activity entry is “very potent”.
As for `CC(C)[C@H](CO)Nc1nc(Nc2cccc(Cl)c2)c2ncn(C(C)C)c2n1` [purvalanol A], the MLV transcription events entry in data set [1] is “block”.

Source of the values: patent publication US7364842B2, “Methods of identifying modulators of human retrovirus replication” (IRM, LLC, priority 2003, dated 2008).
